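48-hour exposure; five concentrations; linearly interpolated endpoints. TGI: total growth inhibition.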
Experiments:
Test in all cases: NCI anticancer screen, dose series, 48 h
HCT-15 colon = system: HCT-15 colon
SK-MEL-28 melanoma = system: SK-MEL-28 melanoma
ACHN renal = system: ACHN renal
NCI-H460 lung = system: NCI-H460 lung
UO-31 renal = system: UO-31 renal
MOLT-4 leukemia = system: MOLT-4 leukemia
SF-295 CNS = system: SF-295 CNS
SF-539 CNS = system: SF-539 CNS
UACC-62 melanoma = system: UACC-62 melanoma
HS 578T breast = system: HS 578T breast
SK-MEL-5 melanoma = system: SK-MEL-5 melanoma
PC-3 prostate = system: PC-3 prostate
T-47D breast = system: T-47D breast

SMILES | TGI (HCT-15 colon) | TGI (SK-MEL-28 melanoma) | TGI (ACHN renal) | TGI (NCI-H460 lung) | TGI (UO-31 renal) | TGI (MOLT-4 leukemia) | TGI (SF-295 CNS) | TGI (SF-539 CNS) | TGI (UACC-62 melanoma) | TGI (HS 578T breast) | TGI (SK-MEL-5 melanoma) | TGI (PC-3 prostate) | TGI (T-47D breast)
O=C1c2ccccc2C(=O)C2C3c4ccccc4C(c4ccccc43)C12 (configuration not stated) | > 100 µM | > 100 µM | > 100 µM | > 100 µM | 59.6 µM | 27.9 µM | 31.5 µM | 25.4 µM | > 100 µM |  |  |  | 
c1ccc(SC(Sc2ccccc2)c2ccc3c(c2)OCO3)cc1 | > 100 µM | > 100 µM | > 100 µM | > 100 µM | > 100 µM | > 100 µM | > 100 µM |  | > 100 µM | > 100 µM | > 100 µM | > 100 µM | > 100 µM
CCn1c(-c2ccccc2)nc2c1C(=O)c1ccccc1C2=O | 44.1 µM | > 100 µM |  | 46.5 µM |  | 91.1 µM | 62.9 µM | > 100 µM | 60.2 µM | > 100 µM | 23.2 µM | 64.3 µM | 
O=C(Nc1ccccc1)Nn1c(-c2cccs2)nc2ccc(I)cc2c1=O | > 100 µM | 53.6 µM | > 100 µM | > 100 µM | 80.3 µM |  | 98.5 µM | > 100 µM | > 100 µM |  | 40.7 µM | > 100 µM | 17.2 µM
C=CCOC(=O)CCCCCCCCCCCCCCCOC(=O)c1c(CCC[C@@H](C)O[Si](C)(C)C(C)(C)C)nc(=O)n2c1CC[C@H]2CC1(CC/C=C\[C@H](CC)O[Si](C(C)C)(C(C)C)C(C)C)OCCO1 | > 100 µM | > 100 µM | > 100 µM | > 100 µM | 61.3 µM |  | > 100 µM | > 100 µM | > 100 µM |  | 46.8 µM | > 100 µM | > 100 µM
CC(=O)O[C@H]1[C@H](OC(C)=O)[C@@H](CN=[N+]=[N-])OCO[C@@H]1CN=[N+]=[N-] | > 100 µM | > 100 µM | > 100 µM | > 100 µM |  | > 100 µM | > 100 µM | > 100 µM | > 100 µM | > 100 µM | > 100 µM | > 100 µM | > 100 µM
NC(N)=NS(=O)(=O)c1ccc(Nc2c3ccccc3nc3c(C(=O)NC(CO)(CO)CO)cccc23)cc1 | > 100 µM | > 100 µM | 40.8 µM | 16.6 µM | 95.2 µM | > 100 µM | > 100 µM |  | 94.6 µM | 41.2 µM | 57.5 µM | > 100 µM | > 100 µM
O=C1N(CN2CCOCC2)CN(CN2CCOCC2)C(=O)N1Cc1ccccc1 | 84.8 µM | 34.8 µM | > 100 µM | > 100 µM | 68.6 µM | 39.3 µM | > 100 µM | 38.9 µM | 49.4 µM |  | 44.2 µM | > 100 µM | 77.1 µM
O=C(O)C(Cc1cnc[nH]1)N=Cc1nc(-c2ccccc2)oc1O (configuration not stated) | > 100 µM | > 100 µM | > 100 µM | > 100 µM | > 100 µM | > 100 µM | > 100 µM | > 100 µM | > 100 µM |  | > 100 µM |  | 
COC(=O)c1cc(-c2ccc(-c3ccc(O)cc3)cc2)cc(-c2ccc(-c3ccc(O)cc3)cc2)c1 | 20.8 µM | 25.7 µM | 27.3 µM | 35 µM | 23.6 µM | 22.1 µM | 20.2 µM | 19.8 µM |  |  | 30.7 µM | 31 µM | 33.8 µM
C[C@@H]1OC(=O)C[C@H]2CC(=O)N(CCC3CN(S(=O)(=O)C(F)(F)F)c4ccc(Cc5ccc6c(c5)C(CCN5C[C@H]7[C@@H](CC(=O)O[C@H]7C)CC5=O)CN6S(=O)(=O)C(F)(F)F)cc43)C[C@@H]21 (some centres not stated) | > 100 µM | > 100 µM | > 100 µM | > 100 µM | > 100 µM | > 100 µM | > 100 µM | 1.84 µM | > 100 µM |  | > 100 µM | > 100 µM | > 100 µM
CN(C)CS/C(N)=N\C(O)C(Cl)(Cl)Cl (configuration not stated) | > 100 µM | > 100 µM | > 100 µM | > 100 µM | > 100 µM | > 100 µM | > 100 µM |  | > 100 µM | > 100 µM | > 100 µM | > 100 µM | > 100 µM
Cc1ccc(S(=O)C[C@@]2(C(F)F)NC(=O)NC2=O)cc1 (some centres not stated) | > 100 µM | > 100 µM | > 100 µM | > 100 µM | > 100 µM | > 100 µM | > 100 µM |  | > 100 µM | > 100 µM | > 100 µM | > 100 µM | > 100 µM
COc1ccccc1-c1nc2ccccc2c(=O)[nH]1 | > 100 µM |  | > 100 µM | > 100 µM | > 100 µM | > 100 µM | > 100 µM |  | > 100 µM | > 100 µM | > 100 µM | > 100 µM | > 100 µM
O=c1oc2cccnc2n1CCN1CCN(c2ccc(Oc3ccccc3)cc2)CC1 | > 100 µM | > 100 µM | > 100 µM | > 100 µM | > 100 µM | > 100 µM | > 100 µM | > 100 µM |  | > 100 µM | > 100 µM | > 100 µM | > 100 µM
Nc1ccc(C(=O)NN2C(=O)C(Cl)C2c2ccc([N+](=O)[O-])cc2)cc1 (configuration not stated) | 23.6 µM | 20.1 µM | 27 µM | 22.1 µM | 30.8 µM | 9.8 µM | 28.3 µM | 25.6 µM | 24.7 µM |  | 28.8 µM |  | 
C[N+](C)(C)C1(C(=O)[O-])CC1 | > 100 µM | > 100 µM | > 100 µM | > 100 µM |  | > 100 µM | > 100 µM | > 100 µM |  | > 100 µM | > 100 µM | > 100 µM | > 100 µM
NC(CCCCN=Cc1nc(-c2ccccc2)oc1O)C(=O)O (configuration not stated) | > 100 µM | > 100 µM | > 100 µM | > 100 µM | > 100 µM | > 100 µM | > 100 µM | > 100 µM | > 100 µM |  | > 100 µM |  | 
O=C(O)CSc1nnc(CCCCCCCCc2nnc(SCC(=O)O)o2)o1 | > 100 µM | > 100 µM | > 100 µM | > 100 µM | > 100 µM | > 100 µM | > 100 µM |  | > 100 µM | > 100 µM | > 100 µM | > 100 µM | > 100 µM
